Publication PMC8760490, “Discovery of novel furanylbenzamide inhibitors that target oncogenic tyrosine phosphatase SHP2 in leukemia cells” (The Journal of Biological Chemistry, 2021)
Read-outs that look alike come from different tables or passages of the source.

How the values were obtained:
MOLM-13 AML cells = test: Cell viability (CellTiter-Glo), MOLM-13; assay type: cell-based; conditions: Homo sapiens
Method: Inhibition of SHP2 has been reported to inhibit the growth of cancer cells including Kasumi-1 acute myeloid leukemia (AML) and KYSE-520 esophageal cancer cells ([30]). […] Thus, we treated two TNBC cell lines, BT-549 and MDA-MB-468, with SBI-4668 or the SHP2 allosteric inhibitor SHP099 at various concentrations and determined cell viability after 72 h, compared with the vehicle control (Fig. 4C). […] Next, we performed an 11-day colony formation assay with TNBC cells treated with SBI-4668 or SHP099 at 5, 10, or 20 μM (Fig. 4D).
(§1) Finally, we evaluated the selectivity of our top two compounds, SBI-2130 and SBI-4668, on MOLM-13 AML cells in which SHP2 was depleted using CRISPR–Cas9 KO. High-efficiency Cas9-editing MOLM-13 cells were generated by transducing MOLM-13 cells with a Cas9 lentiviral construct. Stable clones were tested for editing efficiency by performing tracking of indels by decomposition analysis ([45]), and these MOLM-13-Cas9 cells were transduced with a lentiviral construct containing an AAVS1 single-guide RNA (sgRNA) and an mCherry reporter for bulk sorting of cells with successful AAVS1 editing. SHP2 KO was achieved by transducing MOLM-13-Cas9-mCherry cells with a lentivirus, containing SHP2 dual sgRNAs, resulting in ∼80% reduction of SHP2 protein levels (Fig. 4G). SBI-2130, SBI-4668, and the SHP2 allosteric inhibitor, SHP099, were tested in parallel on regular MOLM-13 cells (expressing WT SHP2) and MOLM-13-Cas9-mCherry cells with SHP2 KO. Cells were treated with inhibitors at various concentrations (ranging from 30 μM to 58 nM) or vehicle control (DMSO) for 72 h, before cell viability was assessed.
Viability of AML and esophageal carcinoma cells was assessed using the ATP-depletion assay CellTiter-Glo (Promega). Cells were harvested at 1 × 10^6/ml to 2 × 10^6 cells/ml with cell numbers determined by trypan blue using the Countess Cell counter (Thermo Scientific) and resuspended in culture media. About 3000 cells (in 20 μl) were seeded in a 384-well format white and clear-bottom microplate (catalog no.: 781098; Greiner) spotted with test compound or vehicle control (DMSO) using an Echo 555 Liquid Handler. […] Luminescence was read on a Tecan Spark Multimode Microplate Reader, and data were analyzed using GraphPad Prism software.
For SHP2 KO, dual sgRNAs targeting SHP2 were cloned in the pLentiGuide puro vector (Addgene plasmid no. 52963 from Dr Feng Zhang) using a published protocol ([50]). […] SHP2 KO was evaluated by immunoblotting. […] For SHP2 KO, MOLM-13-Cas9-mCherry cells were seeded in nontreated 6-well plates (2 × 10^6 cells/well in 2.5 ml), with cell numbers determined by trypan blue using the Countess Cell Counter (Thermo Scientific). […]

[1] = system: MOLM-13-Cas9-mCherry cells with SHP2 KO; test: Cell viability, MOLM-13 SHP2 CRISPR–Cas9 KO; assay type: cell-based; conditions: 72 h, 30 μM to 58 nM
Method: as §1, with “SHP2 KO was achieved by transducing MOLM-13-Cas9-mCherry cells with a lentivirus, containing SHP2 dual sgRNAs, resulting in ∼80% reduction of SHP2 protein levels (Fig. 4G). SBI-2130, SBI-4668, and the SHP2 allosteric inhibitor, SHP099, were tested in parallel on regular MOLM-13 cells (expressing WT SHP2) and MOLM-13-Cas9-mCherry cells with SHP2 KO.” left out, “assessed. […]” for “assessed.”
For SHP2 KO, dual sgRNAs targeting SHP2 were cloned in the pLentiGuide puro vector (Addgene plasmid no. 52963 from Dr Feng Zhang) using a published protocol ([50]). […] SHP2 KO was evaluated by immunoblotting. […] For SHP2 KO, MOLM-13-Cas9-mCherry cells were seeded in nontreated 6-well plates (2 × 10^6 cells/well in 2.5 ml), with cell numbers determined by trypan blue using the Countess Cell Counter (Thermo Scientific). […] Cell viability was assessed using the ATP-depletion assay CellTiter-Glo as described previously, and data were analyzed using GraphPad Prism software.

[2] = 72 h, 30 μM to 58 nM, regular MOLM-13 expressing WT SHP2 (Fig. 4G), read-out: MOLM-13 cell viability IC50 (parallel to SHP2 KO)

Compound | IC50 (MOLM-13 AML cells; [2]) | effect on viability of MOLM-13-Cas9-mCherry SHP2 KO cells [1] | IC50 (MOLM-13 AML cells; MOLM-13, 72 h, 3 days in culture (Fig. 4B), read-out: MOLM-13 cell viability IC50)
Nc1ccc(NC(=O)c2cc(-c3ccc(/C=C4\Sc5ccccc5C4=O)o3)ccc2O)cc1 [SBI-2130, (Z)-N-(4-Aminophenyl)-2-hydroxy-5-(5-((3-oxobenzo[b]thiophen-2(3H)-ylidene)methyl)furan-2-yl)benzamide] | 7.6 µM | either completely abrogated or greatly reduced | –
O=C(Nc1ccccc1)c1cc(-c2ccc(/C=C3\Sc4ccccc4C3=O)o2)ccc1O [SBI-4668, (Z)-2-Hydroxy-5-(5-((3-oxobenzo[b]thiophen-2(3H)-ylidene)methyl)furan-2-yl)-N-phenylbenzamide] | 15 µM | either completely abrogated or greatly reduced | 12 µM
